Laboratory results published in ChEMBL document CHEMBL5291721, “A preclinical secondary pharmacology resource illuminates target-adverse drug reaction associations of marketed drugs” (Nat Commun, 2023).

What was measured:
Prothrombin = Prothrombin (Homo sapiens, UniProt P00734); type: functional
[1] = target: Sodium-dependent dopamine transporter (Homo sapiens, UniProt Q01959)
[2] = target: 3',5'-cyclic-AMP phosphodiesterase 4A (Homo sapiens, UniProt P27815); type: functional
[3] = target: T1, Amine oxidase [flavin-containing] A (Homo sapiens, UniProt P21397); type: functional
T1 sequence (P21397 whole entry): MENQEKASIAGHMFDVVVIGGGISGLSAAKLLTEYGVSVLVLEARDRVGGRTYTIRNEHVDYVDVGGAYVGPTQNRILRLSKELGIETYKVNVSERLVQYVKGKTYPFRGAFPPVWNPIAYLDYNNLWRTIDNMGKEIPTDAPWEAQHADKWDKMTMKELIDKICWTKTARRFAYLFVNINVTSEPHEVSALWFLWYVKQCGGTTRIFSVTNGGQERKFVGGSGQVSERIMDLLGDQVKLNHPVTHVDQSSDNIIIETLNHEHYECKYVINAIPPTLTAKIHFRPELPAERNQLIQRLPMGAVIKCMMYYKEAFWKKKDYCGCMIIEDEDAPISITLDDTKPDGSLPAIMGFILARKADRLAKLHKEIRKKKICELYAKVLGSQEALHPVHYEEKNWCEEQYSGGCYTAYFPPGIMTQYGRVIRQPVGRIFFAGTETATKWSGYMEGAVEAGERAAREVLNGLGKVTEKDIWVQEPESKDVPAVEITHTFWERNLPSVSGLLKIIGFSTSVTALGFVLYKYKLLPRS

[4] = target: 5-hydroxytryptamine receptor 2B (Homo sapiens, UniProt P41595); type: functional, cell-based
5-hydroxytryptamine receptor 2B, sequence (P41595 whole entry): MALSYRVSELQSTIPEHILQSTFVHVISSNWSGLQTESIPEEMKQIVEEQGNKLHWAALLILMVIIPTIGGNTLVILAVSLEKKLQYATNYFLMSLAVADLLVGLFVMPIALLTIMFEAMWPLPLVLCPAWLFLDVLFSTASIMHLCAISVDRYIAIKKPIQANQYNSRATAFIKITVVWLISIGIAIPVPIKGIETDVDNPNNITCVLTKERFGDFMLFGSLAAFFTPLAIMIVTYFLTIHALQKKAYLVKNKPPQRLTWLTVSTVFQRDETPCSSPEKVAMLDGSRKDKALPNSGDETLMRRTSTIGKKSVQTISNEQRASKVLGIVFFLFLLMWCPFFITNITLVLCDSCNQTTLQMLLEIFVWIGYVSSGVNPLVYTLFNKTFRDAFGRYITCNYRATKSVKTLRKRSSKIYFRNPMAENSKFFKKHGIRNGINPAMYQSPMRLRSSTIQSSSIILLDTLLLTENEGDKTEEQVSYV

[5] = target: T2, Alpha-2A adrenergic receptor (Homo sapiens, UniProt P08913)
T2 sequence (P08913 whole entry): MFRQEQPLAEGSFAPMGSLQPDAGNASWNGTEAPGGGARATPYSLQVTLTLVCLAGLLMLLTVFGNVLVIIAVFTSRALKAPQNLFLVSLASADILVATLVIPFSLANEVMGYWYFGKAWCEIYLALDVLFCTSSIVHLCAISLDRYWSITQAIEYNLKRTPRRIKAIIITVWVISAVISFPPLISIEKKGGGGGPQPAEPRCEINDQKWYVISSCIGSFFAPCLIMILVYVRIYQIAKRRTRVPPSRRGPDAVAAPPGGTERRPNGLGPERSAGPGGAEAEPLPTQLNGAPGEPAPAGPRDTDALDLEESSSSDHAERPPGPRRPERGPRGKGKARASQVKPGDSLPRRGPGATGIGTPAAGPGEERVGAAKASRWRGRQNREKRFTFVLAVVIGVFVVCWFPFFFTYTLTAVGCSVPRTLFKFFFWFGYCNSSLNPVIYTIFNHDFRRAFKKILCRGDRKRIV

[6] = target: T3, 5-hydroxytryptamine receptor 1A (Homo sapiens, UniProt P08908)
T3 sequence (P08908 whole entry): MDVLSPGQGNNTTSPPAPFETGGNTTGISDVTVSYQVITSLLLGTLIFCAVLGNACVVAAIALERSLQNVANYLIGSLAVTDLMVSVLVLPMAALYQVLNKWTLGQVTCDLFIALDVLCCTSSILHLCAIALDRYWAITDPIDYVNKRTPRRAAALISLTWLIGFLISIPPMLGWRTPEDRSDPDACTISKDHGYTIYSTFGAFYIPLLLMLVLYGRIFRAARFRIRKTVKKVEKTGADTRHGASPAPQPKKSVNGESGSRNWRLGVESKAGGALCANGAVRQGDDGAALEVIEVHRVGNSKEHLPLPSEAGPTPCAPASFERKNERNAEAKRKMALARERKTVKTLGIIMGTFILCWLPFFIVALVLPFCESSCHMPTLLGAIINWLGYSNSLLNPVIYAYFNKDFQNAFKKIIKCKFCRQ

Thromboxane A2 receptor [7] = target: T4, Thromboxane A2 receptor (Homo sapiens, UniProt P21731); type: functional, cell-based
T4 sequence (P21731 whole entry): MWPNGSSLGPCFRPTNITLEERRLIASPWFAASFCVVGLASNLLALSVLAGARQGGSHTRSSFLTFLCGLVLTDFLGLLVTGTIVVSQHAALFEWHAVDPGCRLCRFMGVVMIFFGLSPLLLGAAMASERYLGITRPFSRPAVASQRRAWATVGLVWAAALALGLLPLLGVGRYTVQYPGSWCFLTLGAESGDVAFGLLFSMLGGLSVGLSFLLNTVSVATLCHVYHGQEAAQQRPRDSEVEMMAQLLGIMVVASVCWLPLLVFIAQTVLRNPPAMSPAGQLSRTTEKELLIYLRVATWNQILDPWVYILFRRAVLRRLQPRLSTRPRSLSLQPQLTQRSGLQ

[8] = target: cGMP-inhibited 3',5'-cyclic phosphodiesterase 3A (Homo sapiens, UniProt Q14432); type: functional
[9] = target: T5, Muscarinic acetylcholine receptor M2 (Homo sapiens, UniProt P08172)
T5 sequence (P08172 whole entry): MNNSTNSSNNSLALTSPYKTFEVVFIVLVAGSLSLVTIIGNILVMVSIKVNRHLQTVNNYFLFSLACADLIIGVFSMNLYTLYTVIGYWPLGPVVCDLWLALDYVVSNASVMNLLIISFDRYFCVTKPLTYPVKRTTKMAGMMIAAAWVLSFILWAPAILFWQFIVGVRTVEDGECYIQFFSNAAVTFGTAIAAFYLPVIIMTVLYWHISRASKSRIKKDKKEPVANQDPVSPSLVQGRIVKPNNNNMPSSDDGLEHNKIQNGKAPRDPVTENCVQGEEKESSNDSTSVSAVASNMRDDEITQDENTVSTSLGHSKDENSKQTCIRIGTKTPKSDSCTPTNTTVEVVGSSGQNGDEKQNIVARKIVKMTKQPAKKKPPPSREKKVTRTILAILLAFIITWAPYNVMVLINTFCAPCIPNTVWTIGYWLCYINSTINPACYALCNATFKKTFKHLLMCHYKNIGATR

Histamine H3 receptor = Histamine H3 receptor (Homo sapiens, UniProt Q9Y5N1)
Histamine H3 receptor, sequence (Q9Y5N1 whole entry): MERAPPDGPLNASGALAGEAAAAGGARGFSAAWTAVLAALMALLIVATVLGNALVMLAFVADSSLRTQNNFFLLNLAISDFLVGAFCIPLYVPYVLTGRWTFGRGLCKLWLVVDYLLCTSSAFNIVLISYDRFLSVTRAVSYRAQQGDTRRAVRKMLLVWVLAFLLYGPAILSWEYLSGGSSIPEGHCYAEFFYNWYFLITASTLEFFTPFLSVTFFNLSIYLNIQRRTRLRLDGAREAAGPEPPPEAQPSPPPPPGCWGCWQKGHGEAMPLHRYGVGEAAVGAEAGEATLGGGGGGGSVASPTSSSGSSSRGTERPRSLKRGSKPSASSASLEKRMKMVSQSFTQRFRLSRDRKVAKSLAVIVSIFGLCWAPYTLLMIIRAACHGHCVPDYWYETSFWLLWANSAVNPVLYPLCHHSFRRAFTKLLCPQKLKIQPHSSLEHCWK

Thromboxane A2 receptor [10] = target: T4, Thromboxane A2 receptor; type: functional, cell-based; remark: listed apart in the source
[11] = target: Voltage-gated inwardly rectifying potassium channel KCNH2 (Homo sapiens, UniProt Q12809); type: functional
Voltage-gated inwardly rectifying potassium channel KCNH2, sequence (Q12809 whole entry): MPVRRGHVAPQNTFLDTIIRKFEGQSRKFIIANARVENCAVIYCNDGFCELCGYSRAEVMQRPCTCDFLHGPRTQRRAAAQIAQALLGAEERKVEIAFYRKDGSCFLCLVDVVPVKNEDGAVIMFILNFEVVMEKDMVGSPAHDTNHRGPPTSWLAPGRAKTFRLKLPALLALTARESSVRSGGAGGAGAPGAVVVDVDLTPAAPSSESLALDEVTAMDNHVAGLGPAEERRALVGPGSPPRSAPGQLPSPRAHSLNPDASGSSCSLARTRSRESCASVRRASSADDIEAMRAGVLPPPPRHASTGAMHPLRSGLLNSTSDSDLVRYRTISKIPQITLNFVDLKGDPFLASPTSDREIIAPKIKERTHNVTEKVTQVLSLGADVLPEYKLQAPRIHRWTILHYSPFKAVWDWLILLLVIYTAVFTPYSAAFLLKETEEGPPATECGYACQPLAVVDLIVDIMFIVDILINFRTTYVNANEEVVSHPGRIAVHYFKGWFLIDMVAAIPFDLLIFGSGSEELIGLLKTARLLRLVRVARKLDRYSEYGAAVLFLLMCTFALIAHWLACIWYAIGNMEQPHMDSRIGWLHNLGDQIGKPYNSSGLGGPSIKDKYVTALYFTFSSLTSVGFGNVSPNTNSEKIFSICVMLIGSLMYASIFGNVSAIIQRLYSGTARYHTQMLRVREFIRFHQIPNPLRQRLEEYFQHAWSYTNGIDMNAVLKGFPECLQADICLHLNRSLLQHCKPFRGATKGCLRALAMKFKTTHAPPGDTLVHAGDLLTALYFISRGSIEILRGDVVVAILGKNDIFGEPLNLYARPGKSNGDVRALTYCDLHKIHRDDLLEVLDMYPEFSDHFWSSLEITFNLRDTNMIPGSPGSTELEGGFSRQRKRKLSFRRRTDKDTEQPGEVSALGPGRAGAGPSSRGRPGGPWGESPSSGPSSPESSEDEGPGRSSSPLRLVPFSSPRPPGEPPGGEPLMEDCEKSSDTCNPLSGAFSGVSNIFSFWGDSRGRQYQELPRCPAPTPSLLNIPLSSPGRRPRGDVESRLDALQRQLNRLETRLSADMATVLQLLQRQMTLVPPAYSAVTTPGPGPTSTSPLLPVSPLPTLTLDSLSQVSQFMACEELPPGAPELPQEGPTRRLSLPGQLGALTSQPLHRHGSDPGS

Acetylcholinesterase = Acetylcholinesterase (Homo sapiens, UniProt P22303); type: functional
Acetylcholinesterase, sequence (P22303 whole entry): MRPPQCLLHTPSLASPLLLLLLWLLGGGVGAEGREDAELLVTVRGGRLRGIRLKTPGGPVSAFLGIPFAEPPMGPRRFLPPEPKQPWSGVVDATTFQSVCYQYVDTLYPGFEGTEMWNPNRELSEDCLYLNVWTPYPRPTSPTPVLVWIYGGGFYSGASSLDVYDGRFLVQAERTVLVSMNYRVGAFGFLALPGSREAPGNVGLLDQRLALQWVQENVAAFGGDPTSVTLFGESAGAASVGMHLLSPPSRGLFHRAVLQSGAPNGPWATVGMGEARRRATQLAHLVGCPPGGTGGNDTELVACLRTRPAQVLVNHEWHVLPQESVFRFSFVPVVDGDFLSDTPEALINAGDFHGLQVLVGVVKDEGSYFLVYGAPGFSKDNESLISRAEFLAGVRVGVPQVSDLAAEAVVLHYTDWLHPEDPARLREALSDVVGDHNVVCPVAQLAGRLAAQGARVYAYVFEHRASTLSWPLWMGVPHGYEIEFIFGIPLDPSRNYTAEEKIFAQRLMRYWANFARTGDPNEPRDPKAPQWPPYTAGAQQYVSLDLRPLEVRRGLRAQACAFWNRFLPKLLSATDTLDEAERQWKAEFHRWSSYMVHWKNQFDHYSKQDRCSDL
Note: assay procedure not described here.

Sodium-dependent dopamine transporter, sequence (Q01959 whole entry): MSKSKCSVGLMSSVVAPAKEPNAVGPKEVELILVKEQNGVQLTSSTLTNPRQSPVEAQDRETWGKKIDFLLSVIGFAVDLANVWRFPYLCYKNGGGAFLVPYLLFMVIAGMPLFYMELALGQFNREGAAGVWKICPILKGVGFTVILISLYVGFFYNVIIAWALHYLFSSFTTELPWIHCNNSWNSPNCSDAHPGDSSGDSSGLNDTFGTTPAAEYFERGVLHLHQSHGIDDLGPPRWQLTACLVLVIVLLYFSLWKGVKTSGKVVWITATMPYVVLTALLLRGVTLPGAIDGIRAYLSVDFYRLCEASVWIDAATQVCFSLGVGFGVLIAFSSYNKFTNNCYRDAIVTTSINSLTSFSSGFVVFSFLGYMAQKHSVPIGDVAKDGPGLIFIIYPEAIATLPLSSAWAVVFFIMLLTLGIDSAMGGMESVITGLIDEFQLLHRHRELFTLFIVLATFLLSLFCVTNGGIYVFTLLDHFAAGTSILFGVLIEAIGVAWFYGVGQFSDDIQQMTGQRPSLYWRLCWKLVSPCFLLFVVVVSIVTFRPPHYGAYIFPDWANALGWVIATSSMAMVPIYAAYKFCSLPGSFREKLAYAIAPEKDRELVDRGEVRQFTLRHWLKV
3',5'-cyclic-AMP phosphodiesterase 4A, sequence (P27815 whole entry): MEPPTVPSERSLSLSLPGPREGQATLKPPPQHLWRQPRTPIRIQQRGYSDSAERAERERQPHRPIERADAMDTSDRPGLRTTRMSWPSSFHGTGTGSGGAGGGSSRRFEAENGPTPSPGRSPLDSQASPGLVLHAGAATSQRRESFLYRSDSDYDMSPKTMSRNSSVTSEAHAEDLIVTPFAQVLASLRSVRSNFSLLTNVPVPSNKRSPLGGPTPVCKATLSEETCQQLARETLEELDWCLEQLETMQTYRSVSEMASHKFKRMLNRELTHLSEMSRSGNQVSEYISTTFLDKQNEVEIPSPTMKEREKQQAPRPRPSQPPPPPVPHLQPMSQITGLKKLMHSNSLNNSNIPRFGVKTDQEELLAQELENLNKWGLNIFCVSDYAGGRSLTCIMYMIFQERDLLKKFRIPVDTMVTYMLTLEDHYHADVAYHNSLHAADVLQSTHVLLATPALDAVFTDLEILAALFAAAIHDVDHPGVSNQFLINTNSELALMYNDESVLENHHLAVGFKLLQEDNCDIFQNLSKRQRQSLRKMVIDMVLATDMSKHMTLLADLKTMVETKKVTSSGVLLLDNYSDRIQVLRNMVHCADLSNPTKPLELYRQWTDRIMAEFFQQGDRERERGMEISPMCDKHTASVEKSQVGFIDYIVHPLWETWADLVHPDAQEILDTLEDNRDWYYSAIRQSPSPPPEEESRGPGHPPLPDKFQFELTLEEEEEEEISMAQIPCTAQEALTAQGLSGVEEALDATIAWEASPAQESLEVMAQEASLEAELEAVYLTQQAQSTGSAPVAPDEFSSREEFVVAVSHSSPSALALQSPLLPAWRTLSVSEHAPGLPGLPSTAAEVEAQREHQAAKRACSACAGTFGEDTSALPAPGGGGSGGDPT

Structure (SMILES)	AC50 (Prothrombin) [µM]	AC50 [1] [µM]	AC50 [2] [µM]	AC50 [3] [µM]	AC50 [4] [µM]	AC50 [5] [µM]	AC50 [6] [µM]	AC50 (Thromboxane A2 receptor [7]) [µM]	AC50 [8] [µM]	AC50 [9] [µM]	AC50 (Histamine H3 receptor) [µM]	AC50 (Thromboxane A2 receptor [10]) [µM]	AC50 [11] [µM]	AC50 (Acetylcholinesterase) [µM]
C[C@H](CCC(=O)O)[C@H]1CC[C@H]2[C@@H]3[C@H](O)C[C@@H]4C[C@H](O)CC[C@]4(C)[C@H]3C[C@H](O)[C@]12C [CHOLIC ACID]	> 30	> 30	> 30	> 30	> 30	> 30	> 30	> 30	13.8	> 30	> 30	> 30	> 30	> 30
CC(=O)OCC(=O)[C@@]1(O)CC[C@H]2[C@@H]3CCC4=CC(=O)CC[C@]4(C)[C@H]3[C@@H](O)C[C@@]21C [HYDROCORTISONE ACETATE]	> 30	> 30	> 30	> 30	> 30	> 30	> 30	> 30	> 30	> 30	> 30	> 30	> 30	> 30
O=C(O)[C@@H]1C[C@@H](O)CN1	> 30	> 30	> 30	> 30	> 30	> 30	> 30	> 30	> 30	> 30	> 30	> 30	> 30	> 30
N[C@@H](Cc1ccccc1)C(=O)O [PHENYLALANINE]	> 30	> 30	> 30	> 30	> 30	> 30	> 30	> 30	> 30	> 30	> 30	> 30	> 30	> 30
CN1CCCN(C(c2ccccc2)c2ccc(Cl)cc2)CC1 (centres undefined) [HOMOCHLORCYCLIZINE]	> 30	0.229	> 30	> 30	> 30	1.35	13.7	11.8	> 30	0.149	> 30	> 3	0.81	> 30
Cc1cc2c(cc1S(N)(=O)=O)S(=O)(=O)CCC2	> 30	> 30	> 30	> 30	> 30	> 30	> 30	> 30	> 30	> 30	> 30	> 30	> 30	> 30
